# Experimental data published in US8445511B2, “Quinoline or quinoxaline derivatives for treating neurodegenerative diseases” (Centre National de la Recherche Scientifique (SNRS), priority 2008, dated 2013).
# Entries after “also recorded” stand apart in the source; their conditions may differ.
# Legend:
# [1] = tested on: fetal dopaminergic neurons in culture; assay: Neuroprotection and differentiation of dopaminergic (TH+) neurons in primary culture of rat embryo mesencephalon (spontaneous degeneration model); format: cell-based; set-up: key to Diff (qualitative assessment of neuron differentiation): + indicates that the neurons have a morphology similar to that of the control; ++ and +++ indicate the presence of neurons whose extensions are longer and more numerous than the control neurons; ++ and +++ indicate the presence of neurons whose extensions are longer and more numerous than the control neurons; − indicates that the neurons have neurites that are shorter and less numerous than the control neurons
# Experimental: Dissection consists in extracting the embryos from the uterus of a rat at fifteen days of gestation. The brain of each embryo is then dissected under a binocular magnifier in order to extract the ventral mesencephalon.
# The mesencephalons are gathered in a flask containing 2 ml of L15 medium and then mechanically dissociated (30 times), and then 5 ml of L15 medium are added. The suspension is left to rest for 8 minutes. 5 ml of the supernatant are recovered in a new flask and the cells are dissociated again (30 times). 5 ml of L15 are again added and the suspension is left to rest for 8 minutes. 5 ml of supernatant are added to the preceding. The cells thus extracted are then centrifuged for 5 minutes at 1,000 rpm. The cell pellet is taken up in Neurobasal medium supplemented with 1% B27, 1% glutamine and 1% penicillin/streptomycin mixture. The cells are then inoculated at the appropriate dilution (0.6 embryo per well on a 24-well plate and 0.4 per well on a 48-well plate). The cultures are incubated at 37° C. in a humid atmosphere enriched with 5% CO2 in a 24- or 48-well plate.
# After 24 hours, two-thirds of the medium of each well is replaced by new medium enriched with the compound of the invention to test at the appropriate dilution. The medium is replaced in the same way after 4 days of culture.
# (§1) At 8 days of culture, the cells are fixed by a 4% formaldehyde solution and then washed three times with PBS. The cells then undergo several immunohistochemistry procedures: • anti-tyrosine hydroxylase (TH) visualized by a secondary antibody coupled to a fluorochrome that emits in the red spectrum (Cy3). • anti-MAP2 (MAP=microtubule-associated protein) (neuron marker) visualized by a secondary antibody coupled to a fluorochrome that emits in the green spectrum (alexa488). • DAPI (4′,6-diamidino-2-phenylindole), a nuclear marker that emits in the blue spectrum.
# (§2) Neuroprotection is evaluated by counting TH positive neurons directly under the microscope or MAP2 positive on images, at 15 images per well, expressed as a percentage of the untreated control. The experiments include three wells per condition. Three independent experiments are carried out under these conditions. Total neurite length per cell calculated by the Neurite Outgrowth software by Explora Nova on 20 neurons photographed independently per well gives an indication of the state of maturation of the dopaminergic neurons.
# The compounds of the invention were tested on a model of spontaneous degeneration of dopaminergic neurons in culture.
# This model consists of culturing cells of the ventral mesencephalon of rat embryo. This part of the brain in culture contains dopaminergic neurons and other primarily GABAergic neurons. These cultures are also composed of glial cells, namely astrocytes, oligodendrocytes and microglia. This is a model of spontaneous degeneration of dopaminergic neurons which mimics certain aspects of Parkinson's disease.
# The neuroprotective effect of the compounds of the invention was evaluated by counting dopaminergic neurons (TH^+) marked by tyrosine hydroxylase (TH) immunohistochemistry after 8 days of culture. Thus the compounds were evaluated at 1 nM, 10 nM, 100 nM and 1 μM and were compared with the activity of dibutyryl cyclic AMP (db-cAMP) used as the reference product.
# In order to evaluate more quantitatively the activity of the compounds of the invention, neurite growth per cell was measured using the Neurite Outgrowth software developed by Explora Nova. A minimum of 60 neurons per condition were photographed and studied, and the results were then averaged and normalized by the number of neurons considered.
# [2] = tested on: dopaminergic neurons; assay: Measurement of tritiated dopamine reuptake in primary mesencephalic cultures; format: cell-based, rat; conditions: 12 days of culture; 1 nM, 10 nM, 100 nM and 1 μM; FIG. 4
# Experimental: The primary cultures are treated and cultivated as previously indicated for 12 days in a 24-well plate. The medium is then replaced by a medium lacking serum and enriched with glucose (PBS+5 mM glucose). One well is treated with GBR (5 μM) and will be used to determine nonspecific reuptake. The cells are incubated in this medium for 10 minutes. 50 μl of tritiated dopamine in solution (20 μl of 1 mCi/ml ^3H-dopamine in 1 ml PBS) is added in each well and the cells are incubated for 20 minutes at 37° C.
# The wells are then washed twice with PBS, and then 500 μl distilled water is added. The cells are scraped and the liquid transferred to scintillation vials containing 7 ml scintillation liquid (Biodegradable Counting Scintillant-liquid scintillation spectroscopy, BCS), well by well. The samples are run through the scintillation counter.
# Neurons at 12 days of culture are then cultivated for a short time in the presence of tritiated dopamine (H^3-DA). After washing, the cells are lysed and intraneuronal H^3-DA is recovered and assayed by scintillation counter.
# [3] = tested on: MAP2+ neurons; assay: Count of MAP2+ neurons in primary mesencephalic cultures (phenotypic specificity); format: cell-based, rat; conditions: DIV12; 10 nM and 100 nM; FIG. 5
# Text: as §1
# as §2, with “neurons. […]” for “neurons.”
# First, the neurons are cultured and maintained at DIV12. […] The neurons are then counted via image with X20 enlargement at 15 images per well.
# [4] = tested on: GABAergic neurons; assay: Measurement of tritiated GABA reuptake in primary mesencephalic cultures; format: cell-based, rat; conditions: 12 days of culture; 10 nM and 100 nM; FIG. 6
# Experimental: The primary cultures are treated and cultivated as previously indicated with 0.5 embryo per well in a 24-well plate for 12 days. The medium is then replaced by a medium lacking serum and enriched with glucose (PBS+5 mM glucose). The cells are incubated in this medium for 10 minutes. 50 μl of tritiated GABA in solution (20 μl of 1 mCi/ml ^3H-GABA in 1 ml PBS) is added in each well and the cells are incubated for 5 minutes at 37° C. Since GABA is taken back up very quickly, it is important to be fast when adding reagents and not to handle too many wells at the same time.
# All wells except one are then washed twice with PBS, and then 500 μl distilled water is added. The cells are scraped and the liquid transferred to scintillation vials containing 7 ml scintillation liquid (Biodegradable Counting Scintillant-liquid scintillation spectroscopy, BCS), well by well. The plate containing the remaining well is placed on ice for 30 minutes, then 50 μl of the same GABA solution is added. After 5 minutes, the well is washed twice with PBS and then the cells are lysed with 500 μl distilled water, scraped and the liquid is transferred to a vial containing 5 ml scintillation liquid. This well will be used to measure non-specificity. The samples are run through the scintillation counter.
smiles,measurement,setting,value
"C#CC(O)CCCCCCCCCCCCC#Cc1ccc2ccccc2n1 (centres unmarked) [Compound N3, 17-(quinolin-2-yl)heptadec-1,16-diyn-3-ol]",dose-response of effect on survival of dopaminergic neurons,"[1]; 1 nM, 10 nM, 100 nM and 1 μM, FIG. 2",dose-dependent
same,Diff (qualitative assessment of neuron differentiation),"[1]; 100 nM, dopaminergic neurons in culture",+++
same,viability at 0.1 µM,"[1]; Rattus norvegicus, Neuron, 192 h, 100 nM, survival of TH+ dopaminergic neurons after 8 days of culture, read-out: % Neurons relative to the control ±SEM",154 ± 4.1%
same,"neuroprotective activity (percentage of survival of dopaminergic neurons), in words, versus reference product db-cAMP","[1]; dopaminergic neurons, 8 days of culture",equal to or greater than that of the reference product; also recorded: the most active compound
same,concentration of maximum effect on survival of dopaminergic neurons,"[1]; dose-response curve, FIG. 2",100 nM
same,reuptake of tritiated dopamine by dopaminergic neurons versus untreated control,[2],increased
same,survival of total neurons of the culture (MAP2+ neurons) versus untreated control,[3],increased
same,activity of total neurons of the culture (reuptake of tritiated GABA) versus untreated control,[4],increased
